Measured values from paper PMC8228141, “Antiprotozoal Nor-Triterpene Alkaloids from Buxus sempervirens L” (Antibiotics, 2021).
Several values for one entry are separate records, joined by “and”; a condition that tells them apart may be missing. Equal values may be shown once. Read-outs that look alike come from different tables or passages of the source.

Assays:
[1] = tested on: Plasmodium falciparum (Pf) (intraerythrocytic forms, NF54 strain); assay: In vitro antiplasmodial activity; type: cell-based; settings: for SI Pf (selectivity index): cytotoxicity L6 vs Pf
Procedure: (§1) After isolation, all alkaloids were tested in vitro for antiplasmodial and antitrypanosomal activity against Plasmodium falciparum (Pf) and Trypanosoma brucei rhodesiense (Tbr). Furthermore, to assess their selectivity against the parasites, cytotoxicity against L6 rat skeletal myoblasts, as mammalian control cells, was tested (Table 4).
(§2) In vitro assays for the bioactivity of the isolated Buxus-alkaloids against Tbr (bloodstream trypomastigotes, STIB 900 strain), Trypanosoma cruzi (Tc) (amastigotes, Tulahuen C4 strain), Leishmania donovani (Ldo) (amastigotes, MHOM-ET-67/L82 strain) and Pf (intraerythrocytic forms, NF54 strain), and cytotoxicity tests against mammalian cells (L6-cell line from rat-skeletal myoblasts), were performed at the Swiss Tropical and Public Health Institute (Swiss TPH, Basel, Switzerland) according to established standard protocols.

[2] = tested on: Trypanosoma brucei rhodesiense (Tbr) (bloodstream trypomastigotes, STIB 900 strain); assay: In vitro antitrypanosomal activity; type: cell-based; settings: for SI Tbr (selectivity index): cytotoxicity L6 vs Tbr
Procedure: as §1
as §2, with “protocols. […] Such a pattern of activity was also observed in other studies.” for “protocols.”

[3] = Cytotoxicity against mammalian control cells; type: cell-based, rat; settings: rat
Procedure: as §1, §2

[4] = tested on: L6 rat skeletal myoblasts; assay: Cytotoxicity against mammalian control cells; type: cell-based; settings: L6 cell line; for Cytotox. IC50: mean of n = 2 (fluctuation range) or * n = 3 (SD); for IC50: read-out: Cytotox. IC50 (in parentheses) (converted)
Procedure: as §1, §2

[5] = Trypanosoma brucei, STIB 900 strain, mean of n = 2 (fluctuation range) or * n = 3 (SD), read-out: Tbr IC50
[6] = Trypanosoma brucei, STIB 900 strain, read-out: Tbr IC50 (in parentheses) (converted)
[7] = NF54 strain, read-out: Pf IC50 (in parentheses) (converted)
[8] = Plasmodium falciparum, NF54, NF54 strain, mean of n = 2 (fluctuation range) or * n = 3 (SD), read-out: Pf IC50
[9] = Plasmodium falciparum, NF54, NF54 strain, read-out: Pf IC50 (in parentheses) (converted)
[10] = STIB 900 strain, mean of n = 2 (fluctuation range) or * n = 3 (SD)
[11] = STIB 900 strain, read-out: Tbr IC50 (in parentheses) (converted)
[12] = NF54 strain, mean of n = 2 (fluctuation range) or * n = 3 (SD)
[13] = L6 rat skeletal myoblast cells, L6 cell line, mean of n = 2 (fluctuation range) or * n = 3 (SD), read-out: Cytotox. IC50
[14] = L6 rat skeletal myoblast cells, L6 cell line, read-out: Cytotox. IC50 (in parentheses) (converted)

| IC50 [1, 7] [µM] | Tbr IC50 [2, 10] [µg/mL] | IC50 [2, 11] [µM] | Pf IC50 [1, 12] [µg/mL] | Compound | IC50 [2, 5] [µg/mL] | IC50 [2, 6] [µM] | SI Tbr (selectivity index) [2] | IC50 [1, 8] [µg/mL] | IC50 [1, 9] [µM] | SI Pf (selectivity index) [1] | IC50 [3] | Cytotox. IC50 [4] [µg/mL] | IC50 [4] [µM] | further results |
| --- | --- | --- | --- | --- | --- | --- | --- | --- | --- | --- | --- | --- | --- | --- |
| 3.8 | 1.35 ± 0.45 | 2.4 | 2.15 ± 0.29 | CC(=O)OC[C@]1(C)[C@@H](NC(=O)c2ccccc2)CC[C@]23C[C@]24C(=O)C[C@]2(C)[C@@H]([C@H](C)N(C)C)CC[C@@]2(C)[C@@H]4CC[C@@H]13 [Compound 9, N-benzoyl-O-acetyl-cycloxo-buxoline-F] | – | – | – | – | – | – | – | 41 ± 0.7 | 73 | – |
| 3.5 | 2.5 ± 0.1 | 6.3 | 1.4 ± 0.44 | C[C@@H]([C@H]1[C@H](O)C[C@@]2(C)[C@@H]3CC[C@H]4C(C)(C)C(=O)C=C[C@@]45C[C@@]35CC[C@]12C)N(C)C [Compound 12, Nb-dimethylcycloxobuxoviricine] | – | – | – | – | – | – | – | 19 ± 1.2 | 47.6 | – |
| 3.8 | 2.2 ± 0.07 | 6.4 | 1.3 ± 0.35 | C[C@@H]([C@H]1CC[C@H]2[C@@H]3CC=C4C[C@@H](O)CC[C@]4(C)[C@H]3CC[C@]12C)N(C)C [Compound 19, Irehine] | – | – | – | – | – | – | – | 13.4 ± 0.5 | 38.8 | – |
| 4 | 5.26 ± 0.3 | 13.2 | 1.6 ± 0.57 | CC(=O)[C@H]1[C@H](O)C[C@@]2(C)[C@@H]3CC[C@@H]4C(=CC3=CC[C@]12C)CC[C@H](N(C)C)C4(C)C [Compound 20, 16-α-hydroxybuxaminone] | – | – | – | – | – | – | – | 45 ± 1 | 113 | – |
| 7.3 | 53 ± 1 | 124 | 3.1 ± 0.24 | CC(=O)N[C@@H](C)[C@H]1CC[C@@]2(C)[C@@H]3CC[C@@H]4C(=CC3=CC[C@]12C)CC[C@H](N(C)C)C4(C)C [Compound 21, N20-acetylbuxamine-E] | – | – | – | – | – | – | – | 54.8 ± 1.1 | 129 | – |
| – | 3.4 ± 1 | – | – | CC(=O)O[C@@H]1C[C@@]2(C)[C@@H]3CC[C@@H]4C(=CC3=CC[C@]2(C)[C@H]1[C@H](C)NC(=O)c1ccccc1)CC[C@H](N(C)C)C4(C)C [Compound 22, N-benzoyl-O-acetylbuxodienine-E] | – | – | – | – | – | – | – | 8.5 ± 0.1 | 15.6 | – |

Continued, molecule first:

| Compound | IC50 [1, 7] [µM] | Tbr IC50 [2, 10] [µg/mL] | IC50 [2, 11] [µM] | Pf IC50 [1, 12] [µg/mL] | IC50 [2, 5] [µg/mL] | IC50 [2, 6] [µM] | SI Tbr (selectivity index) [2] | IC50 [1, 8] [µg/mL] | IC50 [1, 9] [µM] | SI Pf (selectivity index) [1] | IC50 [3] | Cytotox. IC50 [4] [µg/mL] | IC50 [4] [µM] | further results |
| --- | --- | --- | --- | --- | --- | --- | --- | --- | --- | --- | --- | --- | --- | --- |
| CCN(CC)CCCC(C)Nc1ccnc2cc(Cl)ccc12 (centres unmarked) [Chloroquine, reference compound] | – | – | – | – | – | – | – | – | – | – | – | – | – | IC50 ([1]; Plasmodium falciparum, NF54, read-out: Pf IC50): 0.006 ± 0.001 µg/mL; IC50 ([1]; Plasmodium falciparum, NF54, read-out: Pf IC50 (in parentheses)): 0.019 µM |
| C/C=C(\C)C(=O)O[C@@H]1C[C@@]2(C)[C@@H]3C=C[C@H]4[C@](C)(CO)[C@@H](N(C)C)CC[C@@]45C[C@@]35CC[C@]2(C)[C@H]1[C@H](C)NC [Compound 3, O-tigloylcyclomicrophylline-B] | 0.98 | – | – | – | 4.6 ± 0.005 | 9 | 8 | 0.5 ± 0.06 | < 1 | 72 | 35.8 µg/mL and 69.9 µM | – | – | – |
| C/C=C(\C)C(=O)O[C@@H]1C[C@@]2(C)[C@@H]3C=C[C@H]4[C@](C)(CO)[C@@H](N(C)C)CC[C@@]45C[C@@]35CC[C@]2(C)[C@H]1[C@H](C)N(C)C [Compound 4, O-tigloylcyclomicrophylline-A] | 0.7 | – | – | – | 1.5 ± 0.76 | 2.9 | 8 | 0.35 ± 0.08 | < 1 | 34 | 12 µg/mL and 22.8 µM | – | – | – |
| CC(C1C(O)CC2(C)C3C=CC4C(C)(CO)C(N(C)C)CCC45CC35CCC12C)N(C)C (centres unmarked) [Compound 5, Cyclomicrophylline-A] | 1.76 | 1.04 ± 0.27 | 2.34 | 0.78 ± 0.08 | – | – | – | – | – | – | – | 44 ± 2.3 | 99 | – |
| CC(C1C(OC(=O)c2ccccc2)CC2(C)C3C=CC4C(C)(CO)C(N(C)C)CCC45CC35CCC12C)N(C)C (centres unmarked) [Compound 6, Cyclomicrophyllidine-A] | 0.7 | 0.69 ± 0.06 | 1.3 | 0.4 ± 0.02 | – | – | – | – | – | – | – | 9.3 ± 3 | 17 | – |
| CN[C@@H](C)[C@H]1[C@H](OC(=O)c2ccccc2)C[C@@]2(C)[C@@H]3C=C[C@H]4[C@](C)(CO)[C@@H](N(C)C)CC[C@@]45C[C@@]35CC[C@]12C [Compound 7, Cyclomicrophyllidine-B] | – | – | – | – | 1.9 ± 0.3 | 3.6 | 8 | 0.11 ± 0.01 | 0.2 | 145 | 16 µg/mL and 29.9 µM | – | – | – |
| CN[C@@H](C)[C@H]1CC[C@@]2(C)[C@@H]3CC[C@H]4C(C)(C)[C@@H](NC)[C@H](OC(=O)c5ccccc5)C[C@@]45C[C@@]35CC[C@]12C [Compound 8, O-benzoyl-cycloprotobuxoline-D] | – | – | – | – | 0.55 ± 0.18 | 1.1 | 12 | 0.09 ± 0.03 | 0.18 | 74 | 6.65 µg/mL and 13.1 µM | – | – | – |
| C[C@@H]([C@H]1[C@H](O)C[C@@]2(C)[C@@H]3CC[C@@H]4[C@@]5(CCC(=O)[C@@]4(C)CO)C[C@@]35CC[C@]12C)N(C)C [Compound 11, 29-hydroxy-cyclomikuranine-L] | – | – | – | – | 2.9 ± 1 | 7 | 15 | 0.9 ± 0.13 | 2.2 | 49 | 44 µg/mL and 105 µM | – | – | – |
| C=C1C2CC[C@@H]3[C@]4(CC[C@]5(C)[C@@H](C(C)=O)[C@H](O)C[C@@]35C)C[C@]24CC[C@@H]1NC (some centres unmarked) [Compound 17, Cyclomicrobuxinine] | – | – | – | – | 48 ± 0.2 | 129 | 0.6 | 4.1 ± 0.8 | 10.9 | 7 | 30.5 µg/mL and 82 µM | – | – | – |
| C=C1[C@@H](N(C)C)CC[C@]23C[C@]24CC[C@]2(C)[C@@H](C(C)=O)[C@H](O)C[C@@]2(C)[C@@H]4CC[C@@H]13 [Compound 18, Cyclomicrobuxine] | 6.8 | 16.9 ± 2.3 | 44 | 2.6 ± 0.005 | – | – | – | – | – | – | – | 26.8 ± 8.8 | 69.6 | – |
| CC(=O)O[C@@H]1C[C@@]2(C)[C@@H]3CC[C@@H]4C(=CC[C@H](N(C)C)C4(C)C)CC3=CC[C@]2(C)[C@H]1[C@H](C)NC(=O)c1ccccc1 [Compound 23, N-benzoyl-O-acetylbuxadine-E] | – | – | – | – | 3.1 ± 0.6 | 5.7 | 9 | 4.2 ± 0.4 | 7.7 | 7 | – | – | – | IC50 [3, 13]: 27.5 ± 16 µg/mL; IC50 [3, 14]: 50.4 µM |
| CN[C@H]1CC=C2CC3=CC[C@]4(C)[C@@H]([C@H](C)NC(C)=O)CC[C@@]4(C)[C@@H]3CC[C@H]2C1(C)C [Compound 24, N20-acetylbuxadine-G] | – | – | – | – | 0.52 ± 0.27 | 1.3 | 33 | 2.3 ± 0.27 | 5.6 | 7 | – | – | – | IC50 [3, 13]: 16.9 ± 1.1 µg/mL; IC50 [3, 14]: 41 µM |
| Nc1nc(N)nc(Nc2ccc([As]3SCC(CO)S3)cc2)n1 (centres unmarked) [Melarsoprol, reference compound] | – | – | – | – | – | – | – | – | – | – | – | – | – | IC50 ([2]; Trypanosoma brucei, read-out: Tbr IC50): 0.005 ± 0.001 µg/mL; IC50 ([2]; Trypanosoma brucei, read-out: Tbr IC50 (in parentheses)): 0.013 µM |
| COc1cc([C@@H]2c3cc4c(cc3[C@H](O)[C@H]3COC(=O)[C@H]23)OCO4)cc(OC)c1OC [Podophyllotoxin, reference compound] | – | – | – | – | – | – | – | – | – | – | – | – | – | IC50 ([3]; L6 cell line, mean of n = 2 (fluctuation range) or * n = 3 (SD), read-out: Cytotox. IC50): 0.006 ± 0.001 µg/mL |
